Assay results reported in patent US6852673B2, “Herbicidal pyridine compounds” (BASF Aktiengesellschaft, priority 1998, dated 2005).

Experiments:
Format in all cases: in vivo
[1] = test system: Glycine max (GLXMA); test: Pre-emergence herbicidal evaluation, soyabeans
Summary of the method: (§1)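 Seeds mixed with potting soil were planted over about one inch of soil per pot, then sprayed with test compound in aqueous acetone at the equivalent of about 0.0125 to 0.4 kg per hectare. Pots were kept under standard greenhouse care and visually rated 2 to 4 weeks after treatment.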

[2] = test system: Oryza sativum (ORYSA); test: Pre-emergence herbicidal evaluation, rice
Summary of the method: as §1

[3] = test system: Triticum aestivum (TRZAW); test: Pre-emergence herbicidal evaluation, winter wheat
Summary of the method: as §1

[4] = test system: Zea mays (ZEAMX); test: Pre-emergence herbicidal evaluation, maize
Summary of the method: as §1

[5] = test system: Abutilon theophrasti (ABUTH); test: Pre-emergence herbicidal evaluation, velvetleaf
Summary of the method: as §1

[6] = test system: Galium aparine (GALAP); test: Pre-emergence herbicidal evaluation, cleaver
Summary of the method: as §1

[7] = test system: Ipomoea hederacea (IPOHE); test: Pre-emergence herbicidal evaluation, morning glory
Summary of the method: as §1

[8] = test system: Matricaria inodora (MATIN); test: Pre-emergence herbicidal evaluation, mayweed
Summary of the method: as §1

[9] = test system: Solanum nigrum (SOLNI); test: Pre-emergence herbicidal evaluation, black nightshade
Summary of the method: as §1

[10] = test system: Stellaria media (STEME); test: Pre-emergence herbicidal evaluation, chickweed
Summary of the method: as §1

[11] = test system: Alopecurus myosuroides (ALOMY); test: Pre-emergence herbicidal evaluation, black grass
Summary of the method: as §1

[12] = test system: Setaria viridis (SETVI); test: Pre-emergence herbicidal evaluation, green foxtail
Summary of the method: as §1

[13] = test system: Glycine max (GLXMA); test: Post-emergence herbicidal evaluation, soyabeans; conditions: rated 2 to 4 weeks after treatment
Description: [table] [table] […] These acetone solutions are diluted with water and the resulting formulations applied at dosage levels equivalent of about 0.03 to 0.4 kg per hectare of test compound per pot. After spraying the plants are placed on greenhouse benches and are cared for in the usual manner, commensurate with conventional greenhouse practices. From 2 to 4 weeks after treatment, the seedling plants are examined and rated according to the rating system provided above. A rating 0 indicates growth as untreated control, a rating 9 indicates death.

[14] = test system: Oryza sativum (ORYSA); test: Post-emergence herbicidal evaluation, rice; conditions: rated 2 to 4 weeks after treatment
Summary of the method: (§2)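 Post-emergence spray; acetone stock diluted in water; dose ≈0.03–0.4 kg/ha per pot; greenhouse, routine care; visual score at 2–4 wk, 0 = untreated-like, 9 = dead.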

[15] = test system: Triticum aestivum (TRZAW); test: Post-emergence herbicidal evaluation, winter wheat; conditions: rated 2 to 4 weeks after treatment
Summary of the method: as §2

[16] = test system: Zea mays (ZEAMX); test: Post-emergence herbicidal evaluation, maize; conditions: rated 2 to 4 weeks after treatment
Summary of the method: as §2

[17] = test system: Abutilon theophrasti (ABUTH); test: Post-emergence herbicidal evaluation, velvetleaf; conditions: rated 2 to 4 weeks after treatment
Summary of the method: as §2

[18] = test system: Ambrosia artemiisifolia (AMBEL); test: Post-emergence herbicidal evaluation, ragweed; conditions: rated 2 to 4 weeks after treatment
Summary of the method: as §2

[19] = test system: Galium aparine (GALAP); test: Post-emergence herbicidal evaluation, cleaver; conditions: rated 2 to 4 weeks after treatment
Summary of the method: as §2

[20] = test system: Ipomoea hederacea (IPOHE); test: Post-emergence herbicidal evaluation, morning glory; conditions: rated 2 to 4 weeks after treatment
Summary of the method: as §2

[21] = test system: Lamium purpureum (LAMPU); test: Post-emergence herbicidal evaluation, purple deadnettle; conditions: rated 2 to 4 weeks after treatment
Summary of the method: as §2

[22] = test system: Matricaria inodora (MATIN); test: Post-emergence herbicidal evaluation, mayweed; conditions: rated 2 to 4 weeks after treatment
Summary of the method: as §2

[23] = test system: Stellaria media (STEME); test: Post-emergence herbicidal evaluation, chickweed; conditions: rated 2 to 4 weeks after treatment
Summary of the method: as §2

[24] = test system: Alopecurus myosuroides (ALOMY); test: Post-emergence herbicidal evaluation, black grass; conditions: rated 2 to 4 weeks after treatment
Summary of the method: as §2

[25] = test system: Digitaria sanguinalis (DIGSA); test: Post-emergence herbicidal evaluation, large crabgrass; conditions: rated 2 to 4 weeks after treatment
Summary of the method: as §2

[26] = test system: Setaria viridis (SETVI); test: Post-emergence herbicidal evaluation, green foxtail; conditions: rated 2 to 4 weeks after treatment
Summary of the method: as §2

Compound: COc1cc(OCC(F)(F)C(F)F)nc(Oc2cc(C(F)(F)F)nn2C)c1 [Example 4, 2-(1-Methyl-3-trifluoromethylpyrazol-5-yloxy)-4-methoxy-6-(2,2,3,3-tetrafluoropropyloxy)pyridine]
- GLXMA rating ([1]; dose 0.013 kg/ha): 1 (1 - Trace effect)
- GLXMA rating ([1]; dose 0.025 kg/ha): 4 (4 - Injury)
- GLXMA rating ([1]; dose 0.1 kg/ha): 6 (6 - Herbicidal effect)
- GLXMA rating ([1]; dose 0.4 kg/ha): 8 (8 - Approaching complete kill)
- ORYSA rating ([2]; dose 0.013 kg/ha): 1 (1 - Trace effect)
- ORYSA rating ([2]; dose 0.025 kg/ha): 1 (1 - Trace effect)
- ORYSA rating ([2]; dose 0.1 kg/ha): 2 (2 - Slight effect)
- ORYSA rating ([2]; dose 0.4 kg/ha): 3 (3 - Moderate effect)
- TRZAW rating ([3]; dose 0.013 kg/ha): 0 (0 - No effect)
- TRZAW rating ([3]; dose 0.025 kg/ha): 0 (0 - No effect)
- TRZAW rating ([3]; dose 0.1 kg/ha): 1 (1 - Trace effect)
- TRZAW rating ([3]; dose 0.4 kg/ha): 4 (4 - Injury)
- ZEAMX rating ([4]; dose 0.013 kg/ha): 1 (1 - Trace effect)
- ZEAMX rating ([4]; dose 0.025 kg/ha): 1 (1 - Trace effect)
- ZEAMX rating ([4]; dose 0.1 kg/ha): 3 (3 - Moderate effect)
- ZEAMX rating ([4]; dose 0.4 kg/ha): 5 (5 - Definite injury)
- ABUTH rating ([5]; dose 0.013 kg/ha): 3 (3 - Moderate effect)
- ABUTH rating ([5]; dose 0.025 kg/ha): 5 (5 - Definite injury)
- ABUTH rating ([5]; dose 0.1 kg/ha): 7 (7 - Good herbicidal effect)
- ABUTH rating ([5]; dose 0.4 kg/ha): 9 (9 - Complete kill)
- GALAP rating ([6]; dose 0.013 kg/ha): 1 (1 - Trace effect)
- GALAP rating ([6]; dose 0.025 kg/ha): 3 (3 - Moderate effect)
- GALAP rating ([6]; dose 0.1 kg/ha): 5 (5 - Definite injury)
- GALAP rating ([6]; dose 0.4 kg/ha): 8 (8 - Approaching complete kill)
- IPOHE rating ([7]; dose 0.013 kg/ha): 3 (3 - Moderate effect)
- IPOHE rating ([7]; dose 0.025 kg/ha): 6 (6 - Herbicidal effect)
- IPOHE rating ([7]; dose 0.1 kg/ha): 9 (9 - Complete kill)
- IPOHE rating ([7]; dose 0.4 kg/ha): 9 (9 - Complete kill)
- MATIN rating ([8]; dose 0.013 kg/ha): 8 (8 - Approaching complete kill)
- MATIN rating ([8]; dose 0.025 kg/ha): 8 (8 - Approaching complete kill)
- MATIN rating ([8]; dose 0.1 kg/ha): 9 (9 - Complete kill)
- MATIN rating ([8]; dose 0.4 kg/ha): 9 (9 - Complete kill)
- SOLNI rating ([9]; dose 0.013 kg/ha): 6 (6 - Herbicidal effect)
- SOLNI rating ([9]; dose 0.025 kg/ha): 8 (8 - Approaching complete kill)
- SOLNI rating ([9]; dose 0.1 kg/ha): 8 (8 - Approaching complete kill)
- SOLNI rating ([9]; dose 0.4 kg/ha): 8 (8 - Approaching complete kill)
- STEME rating ([10]; dose 0.013 kg/ha): 4 (4 - Injury)
- STEME rating ([10]; dose 0.025 kg/ha): 6 (6 - Herbicidal effect)
- STEME rating ([10]; dose 0.1 kg/ha): 9 (9 - Complete kill)
- STEME rating ([10]; dose 0.4 kg/ha): 9 (9 - Complete kill)
- ALOMY rating ([11]; dose 0.025 kg/ha): 3 (3 - Moderate effect)
- ALOMY rating ([11]; dose 0.1 kg/ha): 8 (8 - Approaching complete kill)
- ALOMY rating ([11]; dose 0.4 kg/ha): 8 (8 - Approaching complete kill)
- SETVI rating ([12]; dose 0.013 kg/ha): 5 (5 - Definite injury)
- SETVI rating ([12]; dose 0.025 kg/ha): 8 (8 - Approaching complete kill)
- SETVI rating ([12]; dose 0.1 kg/ha): 9 (9 - Complete kill)
- SETVI rating ([12]; dose 0.4 kg/ha): 9 (9 - Complete kill)
- GLXMA rating ([13]; dose 0.03 kg/ha): 5 (5 - Definite injury)
- GLXMA rating ([13]; dose 0.1 kg/ha): 8 (8 - Approaching complete kill)
- GLXMA rating ([13]; dose 0.4 kg/ha): 8 (8 - Approaching complete kill)
- ORYSA rating ([14]; dose 0.03 kg/ha): 2 (2 - Slight effect)
- ORYSA rating ([14]; dose 0.1 kg/ha): 2 (2 - Slight effect)
- ORYSA rating ([14]; dose 0.4 kg/ha): 4 (4 - Injury)
- TRZAW rating ([15]; dose 0.03 kg/ha): 2 (2 - Slight effect)
- TRZAW rating ([15]; dose 0.1 kg/ha): 3 (3 - Moderate effect)
- TRZAW rating ([15]; dose 0.4 kg/ha): 5 (5 - Definite injury)
- ZEAMX rating ([16]; dose 0.03 kg/ha): 2 (2 - Slight effect)
- ZEAMX rating ([16]; dose 0.1 kg/ha): 3 (3 - Moderate effect)
- ZEAMX rating ([16]; dose 0.4 kg/ha): 5 (5 - Definite injury)
- ABUTH rating ([17]; dose 0.03 kg/ha): 4 (4 - Injury)
- ABUTH rating ([17]; dose 0.1 kg/ha): 6 (6 - Herbicidal effect)
- ABUTH rating ([17]; dose 0.4 kg/ha): 6 (6 - Herbicidal effect)
- AMBEL rating ([18]; dose 0.03 kg/ha): 3 (3 - Moderate effect)
- AMBEL rating ([18]; dose 0.1 kg/ha): 6 (6 - Herbicidal effect)
- AMBEL rating ([18]; dose 0.4 kg/ha): 7 (7 - Good herbicidal effect)
- GALAP rating ([19]; dose 0.03 kg/ha): 6 (6 - Herbicidal effect)
- GALAP rating ([19]; dose 0.1 kg/ha): 9 (9 - Complete kill)
- GALAP rating ([19]; dose 0.4 kg/ha): 9 (9 - Complete kill)
- IPOHE rating ([20]; dose 0.03 kg/ha): 8 (8 - Approaching complete kill)
- IPOHE rating ([20]; dose 0.1 kg/ha): 9 (9 - Complete kill)
- IPOHE rating ([20]; dose 0.4 kg/ha): 9 (9 - Complete kill)
- LAMPU rating ([21]; dose 0.03 kg/ha): 7 (7 - Good herbicidal effect)
- LAMPU rating ([21]; dose 0.4 kg/ha): 8 (8 - Approaching complete kill)
- MATIN rating ([22]; dose 0.03 kg/ha): 5 (5 - Definite injury)
- MATIN rating ([22]; dose 0.1 kg/ha): 7 (7 - Good herbicidal effect)
- MATIN rating ([22]; dose 0.4 kg/ha): 7 (7 - Good herbicidal effect)
- STEME rating ([23]; dose 0.03 kg/ha): 6 (6 - Herbicidal effect)
- STEME rating ([23]; dose 0.1 kg/ha): 6 (6 - Herbicidal effect)
- STEME rating ([23]; dose 0.4 kg/ha): 8 (8 - Approaching complete kill)
- ALOMY rating ([24]; dose 0.03 kg/ha): 3 (3 - Moderate effect)
- ALOMY rating ([24]; dose 0.1 kg/ha): 6 (6 - Herbicidal effect)
- ALOMY rating ([24]; dose 0.4 kg/ha): 8 (8 - Approaching complete kill)
- DIGSA rating ([25]; dose 0.03 kg/ha): 5 (5 - Definite injury)
- DIGSA rating ([25]; dose 0.1 kg/ha): 7 (7 - Good herbicidal effect)
- DIGSA rating ([25]; dose 0.4 kg/ha): 8 (8 - Approaching complete kill)
- SETVI rating ([26]; dose 0.03 kg/ha): 6 (6 - Herbicidal effect)
- SETVI rating ([26]; dose 0.1 kg/ha): 8 (8 - Approaching complete kill)
- SETVI rating ([26]; dose 0.4 kg/ha): 9 (9 - Complete kill)
